The source of these data is paper PMC4113814, “Bioactive Cembrane Derivatives from the Indian Ocean Soft Coral, Sinularia kavarattiensis” (Marine Drugs, 2014).

The subject of series [1] is CHIKV replicon. Put plainly: microbe, parasite or virus in culture. The note with it: Chikungunya virus; for inhibition at 100 µM: 48 h, read-out: inhibition of the CHIKV replicon (Rluc marker levels). (In antiviral work, replicon cells carry a viral genome segment that copies itself.)
The test system of series [2] is CHIKV replicon. The series can be described thus: CHIKV replicon assay, Cell-IQ live cell imaging, EGFP fluorescence intensity. The note with it: 48 h; for decrease in EGFP marker fluorescence intensity: 50 and 100 μM.
For series [3], the system named is BHK-CHIKV-NCT cells. Put plainly: Cytotoxicity assay by ATP quantitation (CellTiter GLO). Background: Cellular ATP, detected with luciferase, serves as a proxy for viable cell number.
For series [4], the system named is BHK-CHIKV-NCT cells. Put plainly: Cell-IQ live cell imaging, cytotoxicity by cell classification (viable cells). The note with it: 48 h, control compounds.
Series [5] is described as follows: MTT cytotoxicity assay on primary microglial cell cultures. It is filed as cell-based, Wistar rats. The note with it: Wistar, rat, mean of triplicate. As to the method:
(§1) Primary microglial cell cultures were prepared from brains of newborn Wistar rats. Ethics approval for the experiments was granted by the EBIOTEC Review Board (Valter Lombardi, Iván Carrera and Lucía Fernández-Novoa; Project Identification Code: Sinularia Project October 2013; approved 30 October 2013). The neocortex of one-day-old postnatal rats was aseptically dissected out, and the meninges and blood vessels were carefully removed. Following cutting in a medium containing 20% horse serum, the suspension was filtered through a […] and transferred as a single cell suspension to culture dishes, using 5.0 mL of medium per dish. The cultures were incubated at 37 °C in an atmosphere containing 5% CO2. The culture medium consisted of Minimum Essential Medium Eagle, supplemented with L-glutamine, amino acids, vitamins, penicillin, gentamicin, sodium bicarbonate and 20% heat-inactivated horse serum. The medium was changed twice a week. After 1 week, the concentration of horse serum was reduced to 10%. After sixteen days in culture, cells were treated with 1 μg/mL of lipopolysaccharide (LPS). After six hours, different concentrations (1.0 μg/mL, 2.5 μg/mL and 5.0 μg/mL) of Compounds 1–4 and 6 were added to each well, and plates were incubated for 72 h at 37 °C in an atmosphere containing 5% CO2. Positive controls were treated only with LPS, while negative controls were treated with complete medium. After 72 h of incubation, cells were counted, and 2.5 mL of the supernatants were collected from each well and frozen at −40 °C for cytokine analyses. All experiments were carried out twice.
(§2) The cytotoxicity of the compounds was measured by the colorimetric methyl thiazol tetrazolium (MTT) assay and scored as a percentage of the absorbance reduction of treated cultures versus untreated control cultures. Primary microglial cell cultures were seeded into 96-well microplates at 10^4 cells per well and allowed to grow for 24 h. The initial concentration of Compounds 1–4 and 6 was 100 μg/mL in DMSO. The compounds were serially diluted in complete culture medium with two-fold dilutions (100, 50, 25, 12.5, 6.25, 3.12 and 1.56 μg/mL for in vitro cytotoxicity; 12.5, 6.25, 3.12, 1.56, 0.78 and 0.39 μg/mL for cytokine release). Different concentrations of the compounds were added to each well, and Tamoxifen was used as a positive control, with concentrations ranging from 50 to 1.56 μg/mL. Plates were incubated at 37 °C for 72 h under 5% CO2 atmosphere. Then, the 50 μL of MTT-PBS solution in culture medium were added to each well. The plates were further incubated for 4 h under the same conditions. The medium was then removed and replaced with 200 μL of DMSO to solubilize the MTT formazan product. The solutions were shaken for 20 min, and the absorbance was measured at 570 nm. […] Each value represents the mean of triplicate determinations. The IC50 values were calculated from the compound concentration-response curves.
For orientation: Tetrazolium dyes change colour on reduction, which living cells bring about.

Another series deals with IL-1β. The series can be described thus: IL-1β release in supernatants of LPS-treated primary microglial cells (ELISA). The note with it: 72 h; for IL-1β release: LPS-treated. The series is classed as cell-based, Wistar rats. As to the method: as §1, with “After six hours, different concentrations (1.0 μg/mL, 2.5 μg/mL and 5.0 μg/mL) of Compounds 1–4 and 6 were added to each well, and plates were incubated for 72 h at 37 °C in an atmosphere containing 5% CO2.” left out
(§3) The supernatants obtained from cell cultures were analyzed for TNF-α, IL-1β, IL-4, IL-6, IL-8, IL-10 and IL-18 using commercially available ELISA kits following the manufacturers’ instructions. All samples were assayed in duplicate, and equivocal results were repeated. The cytokine concentration was calculated from a standard curve of the corresponding recombinant cytokine.
as §2, with “The initial concentration of Compounds 1–4 and 6 was 100 μg/mL in DMSO.” left out

For a further series, the system named is IL-6. The series can be described thus: IL-6 release in supernatants of LPS-treated primary microglial cells (ELISA). The series is classed as cell-based, Wistar rats. The note with it: 72 h; for IL-6 release: LPS-treated. As to the method:
as §1, with “After six hours, different concentrations (1.0 μg/mL, 2.5 μg/mL and 5.0 μg/mL) of Compounds 1–4 and 6 were added to each well, and plates were incubated for 72 h at 37 °C in an atmosphere containing 5% CO2.” left out
as §3
as §2, with “The initial concentration of Compounds 1–4 and 6 was 100 μg/mL in DMSO.” left out

The subject of the next series is IL-8. The series can be described thus: IL-8 release in supernatants of LPS-treated primary microglial cells (ELISA). The series is classed as cell-based, Wistar rats. The note with it: 72 h; for IL-8 release: LPS-treated. As to the method: as §1, with “After six hours, different concentrations (1.0 μg/mL, 2.5 μg/mL and 5.0 μg/mL) of Compounds 1–4 and 6 were added to each well, and plates were incubated for 72 h at 37 °C in an atmosphere containing 5% CO2.” left out
as §3
as §2, with “The initial concentration of Compounds 1–4 and 6 was 100 μg/mL in DMSO.” left out

A further series relates to IL-18. The series can be described thus: IL-18 release in supernatants of LPS-treated primary microglial cells (ELISA). The series is classed as cell-based, Wistar rats. The note with it: 72 h; for IL-18 release: LPS-treated. The method, then:
as §1, with “After six hours, different concentrations (1.0 μg/mL, 2.5 μg/mL and 5.0 μg/mL) of Compounds 1–4 and 6 were added to each well, and plates were incubated for 72 h at 37 °C in an atmosphere containing 5% CO2.” left out
as §3
as §2, with “[…] […]” for “The initial concentration of Compounds 1–4 and 6 was 100 μg/mL in DMSO. The compounds were serially diluted in complete culture medium with two-fold dilutions (100, 50, 25, 12.5, 6.25, 3.12 and 1.56 μg/mL for in vitro cytotoxicity; 12.5, 6.25, 3.12, 1.56, 0.78 and 0.39 μg/mL for cytokine release).”

The next series relates to TNF-α. Put plainly: TNF-α release in supernatants of LPS-treated primary microglial cells (ELISA). It is filed as cell-based, Wistar rats. The note with it: 72 h; for TNF-α release: LPS-treated. The method, then:
as §1, with “After six hours, different concentrations (1.0 μg/mL, 2.5 μg/mL and 5.0 μg/mL) of Compounds 1–4 and 6 were added to each well, and plates were incubated for 72 h at 37 °C in an atmosphere containing 5% CO2.” left out
as §3
as §2, with “The initial concentration of Compounds 1–4 and 6 was 100 μg/mL in DMSO.” left out

For a further series, the system named is IL-4. Put plainly: IL-4 release in supernatants of LPS-treated primary microglial cells (ELISA). The note with it: 72 h; for IL-4 release: LPS-treated. The series is classed as cell-based, Wistar rats. The method, then: as §1, with “After six hours, different concentrations (1.0 μg/mL, 2.5 μg/mL and 5.0 μg/mL) of Compounds 1–4 and 6 were added to each well, and plates were incubated for 72 h at 37 °C in an atmosphere containing 5% CO2.” left out
as §3
as §2, with “[…] […]” for “The initial concentration of Compounds 1–4 and 6 was 100 μg/mL in DMSO. The compounds were serially diluted in complete culture medium with two-fold dilutions (100, 50, 25, 12.5, 6.25, 3.12 and 1.56 μg/mL for in vitro cytotoxicity; 12.5, 6.25, 3.12, 1.56, 0.78 and 0.39 μg/mL for cytokine release).”

The test system of the next series is IL-10. The series can be described thus: IL-10 release in supernatants of LPS-treated primary microglial cells (ELISA). It is filed as cell-based, Wistar rats. The note with it: 72 h; for IL-10 release: LPS-treated. The method, then:
as §1, with “After six hours, different concentrations (1.0 μg/mL, 2.5 μg/mL and 5.0 μg/mL) of Compounds 1–4 and 6 were added to each well, and plates were incubated for 72 h at 37 °C in an atmosphere containing 5% CO2.” left out
as §3
as §2, with “The initial concentration of Compounds 1–4 and 6 was 100 μg/mL in DMSO.” left out

One may read the inhibition as the share of the control response that was lost under treatment. By IC50 is commonly meant the point on the concentration scale where inhibition reaches its midpoint.

Values after ≈ are worked out from the molar mass of the structure shown.

Consider `C=C(C)C1CC(=O)C2C3C(=O)CC(C=C3C(C)=O)C(C(=O)O)C2C1` (stereo not drawn) [Compound 7, kavaranolide], for which, in the series on CHIKV replicon [1], the inhibition at 100 µM was 0.5 to 63%. In addition, in the series with CHIKV replicon [2], the “decrease in EGFP marker fluorescence intensity” value is recorded as “only moderate decreases”.
polymyxin B [reference compound] had an average toxicity in the series with BHK-CHIKV-NCT cells [3] (10,000 IU/mL) of 93%. In the series on BHK-CHIKV-NCT cells [3] (positive control), the “ED50 for the cytotoxic activity” value was 5900 IU/mL. The “effect of control compound on number of viable cells / cell morphology” value in the series with BHK-CHIKV-NCT cells [4] is “radically decreases”.
With `C=C1/C=C/[C@H](C(C)C)CCC(=C)[C@H](O)CC1` [Compound 5, ent-germacra-4(15),5E,10(14)-trien-1β-ol], in the series with CHIKV replicon [1], the inhibition at 100 µM was 0.5 to 63%. Besides, the “decrease in EGFP marker fluorescence intensity” value in the series with CHIKV replicon [2] is listed as “only moderate decreases”.
`CC/C(=C(\c1ccccc1)c1ccc(OCCN(C)C)cc1)c1ccccc1` [Tamoxifen, reference compound] had an IC50 at 72 h in series [5] of 3.6 µg/mL (≈ 9.69 µM).
For `O=c1cnn([C@@H]2O[C@H](CO)[C@@H](O)[C@H]2O)c(=O)[nH]1` [Compound 6-azauridine, 6-azauridine, reference compound], the IC50 in the series on CHIKV replicon [1] (read-out: IC50, inhibition of replicon (Rluc detection)) is 2000 nM. Also, in the series with CHIKV replicon [1] (read-out: average inhibition (Rluc)), the inhibition at 10 µM was 69%. Besides, the “effect of control compound on fluorescence intensity” value in the series on CHIKV replicon [2] (control compounds) was “decreases the fluorescence intensity”. In the series on BHK-CHIKV-NCT cells [4], the “effect of control compound on number of viable cells / cell morphology” value is “without affecting cell morphology”.
With `C=C(C)[C@@H]1C/C=C(\C(=O)OC)CC(=O)C[C@]2(C)CC(=O)[C@H](CC(=O)C1)O2` [Compound 4], the IL-1β release came to 1.01 ± 0.04 pg/mL in the series with IL-1β (C1: 1.0 μg/mL), 1.02 ± 0.04 pg/mL with IL-1β (C2: 2.5 μg/mL) and 1.01 ± 0.02 pg/mL in the series on IL-1β (C3: 5.0 μg/mL). Moreover, the IC50 is above 12.5 µg/mL in the series with IL-1β (Rattus norvegicus, read-out: IL-1β IC50); above 12.5 µg/mL with IL-6 (Rattus norvegicus, read-out: IL-6 IC50); above 12.5 µg/mL with IL-8 (Rattus norvegicus, read-out: IL-8 IC50); above 12.5 µg/mL in the series on IL-18 (Rattus norvegicus, read-out: IL-18 IC50); above 12.5 µg/mL in the series with TNF-α (Rattus norvegicus, read-out: TNF-α IC50); above 12.5 µg/mL in the series on IL-4 (Rattus norvegicus, read-out: IL-4 IC50). For the same compound, the IC50 in the series with IL-10 (Rattus norvegicus, read-out: IL-10 IC50) was above 12.5 µg/mL. Besides, the results for the IL-6 release in the series on IL-6 (C1: 1.0 μg/mL), in the series with IL-6 (C2: 2.5 μg/mL) and in the series on IL-6 (C3: 5.0 μg/mL) were 12.1 ± 1.3 pg/mL, 14.1 ± 1.1 pg/mL and 12.1 ± 1.3 pg/mL, respectively. Further, the IL-8 release in the series on IL-8 (C2: 2.5 μg/mL) and in the series with IL-8 (C3: 5.0 μg/mL) was 247 ± 8 pg/mL each time. Further, the IL-18 release in the series on IL-18 (C2: 2.5 μg/mL) and with IL-18 (C3: 5.0 μg/mL) was 312 ± 8.2 pg/mL in each case. In addition, the TNF-α release in the series on TNF-α (C1: 1.0 μg/mL) is 33.2 ± 2.8 pg/mL; in the series on TNF-α (C2: 2.5 μg/mL), 29.8 ± 2.5 pg/mL; in the series with TNF-α (C3: 5.0 μg/mL), 32.5 ± 3.7 pg/mL. Also, the figures for the IL-4 release in the series on IL-4 (C1: 1.0 μg/mL), with IL-4 (C2: 2.5 μg/mL) and with IL-4 (C3: 5.0 μg/mL) were 2.2 ± 0.2 pg/mL, 2.3 ± 0.5 pg/mL and 1.8 ± 0.2 pg/mL, respectively. Also, the results for the IL-10 release in the series on IL-10 (C1: 1.0 μg/mL), in the series with IL-10 (C2: 2.5 μg/mL) and with IL-10 (C3: 5.0 μg/mL) were 8.4 ± 2.6 pg/mL, 7.9 ± 2.5 pg/mL and 7.8 ± 3.2 pg/mL, respectively. In [5], this compound displayed an IC50 at 72 h above 100 µg/mL.
